Assay results reported in patent publication US10836763B2, “5 to 7 membered heterocyclic amides as JAK inhibitors” (priority 2018, dated 2020).

Tests used:
JAK2 = JAK2 (Homo sapiens (Human), UniProt O60674); experiment: Biochemical JAK kinase assay (LanthaScreen), JAK2
Description: (§1) Assay 1: Biochemical JAK Kinase Assays
(§2) A panel of four LanthaScreen JAK biochemical assays (JAK1, 2, 3 and Tyk2) were carried in a common kinase reaction buffer (50 mM HEPES, pH 7.5, 0.01% Brij-35, 10 mM MgCl2, and 1 mM EGTA). Recombinant GST-tagged JAK enzymes and a GFP-tagged STAT1 peptide substrate were obtained from Life Technologies.
(§3) Serially diluted compounds were pre-incubated with each of the four JAK enzymes and the substrate in white 384-well microplates (Corning) at ambient temperature for 1 h. ATP was subsequently added to initiate the kinase reactions in 10 μL total volume, with 1% DMSO. […] Kinase reactions were allowed to proceed for 1 hour at ambient temperature before a 10 μL preparation of EDTA (10 mM final concentration) and Tb-anti-pSTAT1 (pTyr701) antibody (Life Technologies, 2 nM final concentration) in TR-FRET dilution buffer (Life Technologies) was added. The plates were allowed to incubate at ambient temperature for 1 h before being read on the EnVision reader (Perkin Elmer). Emission ratio signals (520 nm/495 nm) were recorded and utilized to calculate the percent inhibition values based on DMSO and background controls.
(§4) For dose-response analysis, percent inhibition data were plotted vs. compound concentrations, and IC50 values were determined from a 4-parameter robust fit model with the Prism software (GraphPad Software). Results were expressed as pIC50 (negative logarithm of IC50) and subsequently converted to pKi (negative logarithm of dissociation constant, Ki) using the Cheng-Prusoff equation.

Tyk2 = Tyk2 (Homo sapiens (Human), UniProt P29597); experiment: Biochemical JAK kinase assay (LanthaScreen), Tyk2
Description: as §1, §2, §3, §4

Lung S9 metabolism = type: in vitro ADME, human; conditions: for Compound Remaining at 60 min (%) / microsomal CLint at 1 µM: human lung S9, 1 μM compound, 1 mg/mL S9 protein, NADPH and PAPS; for microsomal CLint at 1 µM: lung S9 fraction, pH 7.4, read-out: Clearance; for Sulfate Appearance: qualitative, O-sulfate metabolite peak in human lung S9
Description: Assay 5: Lung S9 Metabolism […] Lung S9 fractions from human (lot 1410245) were purchased from XenoTech LLC (Lenexa, Kans.). NADPH (Sigma Aldrich, N1630) and 3-phosphoadenosine 5-phosphosulfate (PAPS) (Sigma Aldrich, A1651) were purchased from Sigma Aldrich (St. Louis, Mo.). Acetonitrile and water were obtained from VWR (Radnor, Pa.) and were of HPLC grade or better. Raloxifene and formic acid was purchased from Sigma Aldrich (St. Louis, Mo.). Lung S9 incubations were performed in a water bath at 37° C. in a 96-well polypropylene plate. […] All samples were centrifuged at 2250 g for 10 minutes at 5° C. Supernatant (50 μL) was taken from the centrifuged samples and diluted into 100 μL HPLC water containing internal standard. […] Mobile Phase A consisted of Water+0.2% formic acid and Mobile Phase B consisted of acetonitrile+0.2% formic acid. Peak integration was accomplished using Gubbs GMSU software (Gubbs Inc., Alpharetta, Ga.). For each sample, peak area ratios were calculated by dividing the analyte peak area by the internal standard peak area. […] Determination of sulfate metabolite formation was made qualitatively by observation of early-eluting peak in the parent ion channel which, based on historical internal data, corresponded to the O-sulfate metabolite of each parent compound.

JAK1 = JAK1 (Homo sapiens (Human), UniProt P23458); experiment: Co-crystal structure with JAK1; conditions: resolution of 2.28 Å
Source text: A co-crystal structure was obtained of compound D-1 bound to human JAK1 at a resolution of 2.28 Å. […] Seven specific hydrogen bonding interactions were identified based upon a distance of 3.5 Å or less between donor and acceptor atoms. Of particular note, a hydrogen bonding interaction was identified between the carbonyl of the exocyclic amide of compound D-1 and the sidechain of Arg879 of JAK1. A similar interaction can be expected for the compounds of the invention.

[1] = tested on: IL-2 stimulated STAT5 phosphorylation in Tall-1 human T cell line; experiment: Inhibition of IL-2 stimulated pSTAT5 in Tall-1 T cells; type: cell-based; conditions: TALL-1, 0.5 h, IL-2 300 ng/mL, 30 min, pSTAT5 AlphaLisa, read-out: Tall-1 pIC50 (converted)
Description: Assay 2: Inhibition of IL-2 Stimulated pSTAT5 in Tall-1 T Cells
The potency of test compounds for inhibition of interleukin-2 (IL-2) stimulated STAT5 phosphorylation was measured in the Tall-1 human T cell line (DSMZ) using AlphaLisa.
Phosphorylated STAT5 was measured via the AlphaLISA SureFire Ultra pSTAT5 (Tyr694/699) kit (PerkinElmer).
Compounds were serially diluted in DMSO and dispensed acoustically to empty wells. Assay media (phenol red-free DMEM (Life Technologies) supplemented with 10% FBS (ATCC)) was dispensed (4 μL/well) and plates shaken at 900 rpm for 10 mins. Cells were seeded at 45,000 cells/well in assay media (4 μL/well), and incubated at 37° C., 5% CO2 for 1 hour, followed by the addition of IL-2 (R&D Systems; final concentration 300 ng/mL) in pre-warmed assay media (4 μL) for 30 minutes. […] The lysate was shaken at 900 rpm for 10 minutes at room temperature (RT). Phosphorylated STAT5 was measured via the pSTAT5 AlphaLisa kit (PerkinElmer). Freshly prepared acceptor bead mixture was dispensed onto lysate (5 μL) under green filtered <100 lux light. Plates were shaken at 900 rpm for 2 mins, briefly spun down, and incubated for 2 hrs at RT in the dark. Donor beads were dispensed (5 μL) under green filtered <100 lux light. Plates were shaken at 900 rpm for 2 minutes, briefly spun down, and incubated overnight at RT in the dark. Luminescence was measured with excitation at 689 nm and emission at 570 nm using an EnVision plate reader (PerkinElmer) under green filtered <100 lux light.
To determine the inhibitory potency of test compounds in response to IL-2, the average emission intensity of beads bound to pSTAT5 was measured in a human T cell line. IC50 values were determined from analysis of the inhibition curves of signal intensity versus compound concentration. Data are expressed as pIC50 (negative decadic logarithm IC50) values (mean±standard deviation).

[2] = tested on: TSLP-evoked TARC release in human peripheral blood mononuclear cells; experiment: Inhibition of TSLP-evoked TARC release in human peripheral blood mononuclear cells; type: cell-based; conditions: PBMC from 3 to 5 donors, TSLP 10 ng/mL, 48 hours, TARC ELISA, read-out: pIC50 ± st. dev., inhibition of TSLP-evoked TARC release (converted)
Source text: Assay 4: Inhibition of TSLP-Evoked TARC Release in Human Peripheral Blood Mononuclear Cells
Thymic stromal lymphopoietin (TSLP) and thymus and activation-regulated chemokine (TARC) are overexpressed in asthmatic airways, and correlate with disease severity. In the lungs, TSLP may be released by bronchial epithelial cells in response to allergens and viral infections. TSLP signals through an IL-7Rα/TSLPR heterodimer found in a broad range of tissues and cell types, including epithelial cells, endothelial cells, neutrophils, macrophages, and mast cells. The binding of TSLP to its receptor induces a conformational change that activates JAK1 and JAK2 to phosphorylate various transcription factors, including STAT3 and STAT5. In immune cells, this triggers a cascade of intracellular events that result in cell proliferation, anti-apoptosis, dendritic cell migration, and production of Th2 cytokines and chemokines. In peripheral blood mononuclear cells (PBMC), TSLP has a proinflammatory effect by activating myeloid dendritic cells to attract and stimulate T cells, a process mediated by the chemoattractant TARC.
The potencies of the test compounds were measured for inhibition of TARC release.
PBMC aliquots (previously isolated from whole blood and frozen in aliquots at −80° C.) from 3 to 5 donors were thawed at 37° C. and added dropwise to 40 mL pre-warmed, sterile-filtered, complete RPMI media in 50 mL Falcon tubes. Cells were pelleted and resuspended in complete media at 2.24×10^6 cells/mL. Cells were seeded at […] (190,000 cells) per well in a tissue culture treated 96-well flat bottom microplate. Cells were allowed to rest for 1 hour at 37° C. with 5% CO2.
Compounds were received as 10 mM stock solutions in DMSO. 3.7-fold serial dilutions were performed to generate 9 concentrations of test compound in DMSO at 300× the final assay test concentration. […] After the 1 hour rest period, 95 µL of 2× compound was added to each well of PBMC, for a final assay concentration range of 33.33 μM to […]. 95 μL of 0.2% DMSO in complete media was added to the untreated control wells. Cells were pre-treated with compound for 1 hour at 37° C. with 5% CO2 prior to stimulation.
Recombinant human TSLP protein was reconstituted at 10 μg/mL in sterile DPBS with 0.1% BSA and stored in aliquots at −20° C. Immediately prior to use, an aliquot was thawed and prepared at 20× the final assay concentration in complete media. 10 μL of 20×TSLP was added to each well of PBMC, for a final assay concentration of 10 ng/mL. 10 μL of complete media was added to the unstimulated control wells. Cells were stimulated in the presence of compound for 48 hours at 37° C. with 5% CO2.
Following stimulation, the cell culture supernatants were harvested and TARC levels were detected by enzyme-linked immunosorbent assay (ELISA), using Human CCL17/TARC Quantikine ELISA Kit (R&D Systems # DDN00) according to the manufacturer's instructions.
For dose response analysis, the log [test compound (M)] was plotted versus the percent response values for each donor, and IC50 values were determined using a nonlinear regression analysis with GraphPad Prism Software using the 4-parameter sigmoidal dose-response algorithm with variable slope. Data are expressed as mean pIC50 (negative decadic logarithm IC50) values calculated from pIC50 values of individual donors and rounded to one decimal place.

JAK2, sequence (O60674 whole entry): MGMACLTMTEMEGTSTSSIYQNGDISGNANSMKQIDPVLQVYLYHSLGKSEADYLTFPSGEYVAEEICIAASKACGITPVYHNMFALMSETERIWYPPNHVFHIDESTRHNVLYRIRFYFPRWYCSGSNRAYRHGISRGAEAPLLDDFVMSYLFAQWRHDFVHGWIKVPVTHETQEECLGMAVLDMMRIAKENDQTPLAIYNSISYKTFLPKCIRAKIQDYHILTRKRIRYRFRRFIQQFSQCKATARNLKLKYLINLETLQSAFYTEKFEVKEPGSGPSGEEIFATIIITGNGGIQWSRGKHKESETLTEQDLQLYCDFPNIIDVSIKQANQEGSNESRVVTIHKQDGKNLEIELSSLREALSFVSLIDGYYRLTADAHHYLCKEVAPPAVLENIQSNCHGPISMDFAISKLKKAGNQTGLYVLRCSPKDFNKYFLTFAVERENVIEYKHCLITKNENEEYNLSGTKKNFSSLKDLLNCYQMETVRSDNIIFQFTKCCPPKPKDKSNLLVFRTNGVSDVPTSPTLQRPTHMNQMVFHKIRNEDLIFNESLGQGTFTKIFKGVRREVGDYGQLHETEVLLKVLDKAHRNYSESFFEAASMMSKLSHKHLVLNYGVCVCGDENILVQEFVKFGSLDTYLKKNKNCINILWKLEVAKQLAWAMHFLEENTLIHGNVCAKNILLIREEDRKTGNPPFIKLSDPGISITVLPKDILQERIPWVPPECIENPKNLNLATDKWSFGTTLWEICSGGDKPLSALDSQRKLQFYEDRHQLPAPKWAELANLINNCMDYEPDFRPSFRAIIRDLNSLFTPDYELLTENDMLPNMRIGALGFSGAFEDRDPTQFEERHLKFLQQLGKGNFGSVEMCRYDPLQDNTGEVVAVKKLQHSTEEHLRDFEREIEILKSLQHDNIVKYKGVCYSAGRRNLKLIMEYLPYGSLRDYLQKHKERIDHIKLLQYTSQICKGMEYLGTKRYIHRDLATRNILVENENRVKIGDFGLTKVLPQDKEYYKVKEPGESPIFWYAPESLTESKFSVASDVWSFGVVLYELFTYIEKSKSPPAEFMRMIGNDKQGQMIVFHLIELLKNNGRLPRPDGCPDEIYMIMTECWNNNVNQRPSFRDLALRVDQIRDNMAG
JAK1, sequence (P23458 whole entry): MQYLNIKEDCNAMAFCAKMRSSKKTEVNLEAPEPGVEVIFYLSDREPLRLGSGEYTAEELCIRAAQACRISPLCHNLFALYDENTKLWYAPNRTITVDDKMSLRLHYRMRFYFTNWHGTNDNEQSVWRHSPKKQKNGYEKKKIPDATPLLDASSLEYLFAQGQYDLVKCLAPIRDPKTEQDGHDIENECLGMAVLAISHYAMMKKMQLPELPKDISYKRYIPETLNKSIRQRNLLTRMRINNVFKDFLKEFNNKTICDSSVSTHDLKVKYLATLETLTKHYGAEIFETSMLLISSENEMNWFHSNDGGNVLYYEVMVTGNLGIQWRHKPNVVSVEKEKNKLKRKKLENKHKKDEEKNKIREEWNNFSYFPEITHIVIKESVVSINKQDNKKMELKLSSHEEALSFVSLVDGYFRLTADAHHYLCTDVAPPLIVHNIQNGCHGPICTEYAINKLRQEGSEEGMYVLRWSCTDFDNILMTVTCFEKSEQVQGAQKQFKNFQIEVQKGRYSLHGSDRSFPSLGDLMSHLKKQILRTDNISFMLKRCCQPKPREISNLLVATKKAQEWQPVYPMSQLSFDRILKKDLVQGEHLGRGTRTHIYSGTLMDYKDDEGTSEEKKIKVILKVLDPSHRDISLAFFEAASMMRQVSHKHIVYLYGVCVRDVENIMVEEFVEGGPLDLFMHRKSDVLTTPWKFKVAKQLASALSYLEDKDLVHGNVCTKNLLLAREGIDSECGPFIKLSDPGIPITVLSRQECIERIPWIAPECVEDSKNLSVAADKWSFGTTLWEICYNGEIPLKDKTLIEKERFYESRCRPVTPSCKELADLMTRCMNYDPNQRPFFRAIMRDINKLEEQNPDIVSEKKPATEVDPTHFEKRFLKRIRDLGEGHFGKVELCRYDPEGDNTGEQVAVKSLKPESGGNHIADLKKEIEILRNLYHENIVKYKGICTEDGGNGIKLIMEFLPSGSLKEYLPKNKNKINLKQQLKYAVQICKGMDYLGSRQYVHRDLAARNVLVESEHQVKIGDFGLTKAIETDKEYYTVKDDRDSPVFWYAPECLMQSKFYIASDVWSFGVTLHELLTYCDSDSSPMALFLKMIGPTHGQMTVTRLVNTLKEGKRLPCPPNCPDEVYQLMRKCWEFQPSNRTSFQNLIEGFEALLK
Tyk2, sequence (P29597 whole entry): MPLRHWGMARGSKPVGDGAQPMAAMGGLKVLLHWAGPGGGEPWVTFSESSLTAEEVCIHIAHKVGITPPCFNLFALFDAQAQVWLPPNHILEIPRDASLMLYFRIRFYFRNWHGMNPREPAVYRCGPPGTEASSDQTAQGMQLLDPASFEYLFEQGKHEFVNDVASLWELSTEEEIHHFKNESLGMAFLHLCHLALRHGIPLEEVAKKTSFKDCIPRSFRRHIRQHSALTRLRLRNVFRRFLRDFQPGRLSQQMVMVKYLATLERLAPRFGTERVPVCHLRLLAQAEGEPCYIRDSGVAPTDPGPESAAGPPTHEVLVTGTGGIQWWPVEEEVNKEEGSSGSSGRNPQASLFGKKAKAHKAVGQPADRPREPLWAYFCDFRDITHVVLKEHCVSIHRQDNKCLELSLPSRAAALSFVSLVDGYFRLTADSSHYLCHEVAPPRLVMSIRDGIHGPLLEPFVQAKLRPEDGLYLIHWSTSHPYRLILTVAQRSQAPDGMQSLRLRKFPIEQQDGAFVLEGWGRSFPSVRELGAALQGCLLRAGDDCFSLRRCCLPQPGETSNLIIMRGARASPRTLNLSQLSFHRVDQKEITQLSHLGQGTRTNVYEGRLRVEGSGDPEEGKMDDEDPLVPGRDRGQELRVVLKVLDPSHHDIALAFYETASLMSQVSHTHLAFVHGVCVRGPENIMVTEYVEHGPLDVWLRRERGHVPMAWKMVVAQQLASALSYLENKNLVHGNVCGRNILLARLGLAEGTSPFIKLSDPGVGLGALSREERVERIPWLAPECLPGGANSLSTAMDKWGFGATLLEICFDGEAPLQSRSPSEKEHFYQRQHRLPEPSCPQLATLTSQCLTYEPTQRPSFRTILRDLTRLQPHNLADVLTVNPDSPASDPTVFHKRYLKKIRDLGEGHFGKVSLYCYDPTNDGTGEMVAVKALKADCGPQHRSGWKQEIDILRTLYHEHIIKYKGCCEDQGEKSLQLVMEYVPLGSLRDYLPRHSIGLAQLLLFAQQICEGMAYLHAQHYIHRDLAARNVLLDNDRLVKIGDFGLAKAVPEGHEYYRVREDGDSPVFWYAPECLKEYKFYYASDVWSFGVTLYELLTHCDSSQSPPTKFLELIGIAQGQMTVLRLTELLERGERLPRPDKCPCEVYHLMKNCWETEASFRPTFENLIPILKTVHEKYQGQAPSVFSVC

SMILES: CCc1cc(O)ccc1-c1ccc2c(-c3nc4c([nH]3)CN(C)[C@H](C(=O)N3CCN(C)C[C@@H]3C)C4)n[nH]c2c1 [Compound 3, ((S)-2,4-dimethylpiperazin-1-yl)((S)-2-(6-(2-ethyl-4-hydroxyphenyl)-1H-indazol-3-yl)-5-methyl-4,5,6,7-tetrahydro-3H-imidazo[4,5-c]pyridin-6-yl)methanone]
- JAK2 pKi (JAK2): 10.4
- Tyk2 pKi (Tyk2): 9.3
- Compound Remaining at 60 min (%) (Lung S9 metabolism): 86%
- microsomal CLint at 1 µM (Lung S9 metabolism): 2.6 µL/min/mg
- Sulfate Appearance (Lung S9 metabolism): Yes

SMILES: CCc1cc(O)c(F)cc1-c1ccc2c(-c3nc4c([nH]3)CN(C(C)C)[C@H](C(=O)N3CC(N(C)C)C3)C4)n[nH]c2c1 [Compound D-1, (S)-(3-(dimethylamino)azetidin-1-yl)(2-(6-(2-ethyl-5-fluoro-4-hydroxyphenyl)-1H-indazol-3-yl)-5-isopropyl-4,5,6,7-tetrahydro-3H-imidazo[4,5-c]pyridin-6-yl)methanone]
- binding site in co-crystal structure (JAK1): bind in the ATP binding site

SMILES: CCc1cc(O)c(F)cc1-c1ccc2c(-c3nc4c([nH]3)CN(C(C)C)[C@H](C(=O)N3CC[C@H](N(C)C)C3)C4)n[nH]c2c1 [Compound C-6, reference compound]
- IC50 [1]: 2.51 nM
- IC50 [2]: 158 nM
- Compound Remaining at 60 min (%) (Lung S9 metabolism): 5%
- microsomal CLint at 1 µM (Lung S9 metabolism): 51.4 µL/min/mg
- Sulfate Appearance (Lung S9 metabolism): Yes
